According to patent US20240164998A1, “FRAGRANCE COMPOSITION” (TAKASAGO INTERNATIONAL CORPORATION, priority 2022, published 2024):
Counter-ions that a name gives are not always drawn.

Assays:
[1] = Sensory evaluation of fragrance compositions against model body odor; parameters: species or system people; conditions: each malodor (model body odor, model nursing care odor); substance in floral base fragrance composition
Method: TEC in the tables indicates triethyl citrate. […] Note that, a grouping method and the ratio within the groups are optional and are not limited by Table 9. Floral bases in Table 2 to Table 8 were prepared according to Table 10.
The malodor prevention ability of these fragrance compositions was confirmed by sensory evaluation. As for malodor, model body odor and model nursing care odor containing hexanal as one of key components were prepared according to Table 11 and Table 12. 10 μL of each model malodor and 1 μL of the fragrances 1 to 60 as test substances were dropped into a cotton ball, which was charged into a plastic bottle. The bottle was left standing at room temperature for 30 minutes to allow odor molecules to sufficiently volatilize inside the bottle. A sensory evaluation test was performed by a panel of 20 people, the discomfort when the malodor was dropped alone was rated as −3, and the discomfort when the test substance was mixed was evaluated from −4 (extremely discomfortable) to +4 (extremely comfortable). An average value was calculated from the obtained numerical values.

[2] = Sensory evaluation of malodor prevention ability of group A against hexanal odor; parameters: species or system people; conditions: scale 0 (no malodor felt) to 10 (very strong); hexanal alone rated 8; 10 μL hexanal diluted 100 times + 1 μL test substance, 1 hour room temperature; average of panel of 20
Method: The malodor prevention ability of a test substance was confirmed by sensory evaluation. As malodor, 10 μL of hexanal diluted 100 times with dipropylene glycol and 1 μL of the test substance were dropped into a cotton ball, which was charged into a plastic bottle. The bottle was left standing at room temperature for 1 hour to allow odor molecules to sufficiently volatilize inside the bottle. A sensory evaluation test was performed by a panel of 20 people, a malodor intensity when the malodor was dropped alone was rated as 8, and the odor intensity when the test substance was mixed was evaluated from 0 (no malodor was felt) to 10 (very strong malodor was felt). An average value was calculated from the obtained numerical values.

| SMILES | effect on reducing the discomfort due to malodor (in words) [1] | Hexanal odor intensity [2] |
| --- | --- | --- |
| CCOC(=O)C1C(C)CCCC1(C)C (stereo not shown) [Thesaron, ethyl 2,2,6-trimethylcyclohexane-1-carboxylate] | reduced the discomfort due to each malodor | 2.6 |
| C=C(C)C1CC=C(C)C(=O)C1 (stereo not shown) [Carvone, reference compound] |  | 7.1 |
| CC(C)[C@@H]1CC[C@@H](C)CC1=O [Menthone, reference compound] |  | 6.9 |
| CCCCCC1C(=O)CCC1CC(=O)OC (stereo not shown) [Hedione, methyl (2-pentyl-3-oxo-cyclopentyl) acetate] | reduced the discomfort due to each malodor | 4.2 |
| CC(=O)C1(C)CC2=C(CCCC2(C)C)CC1C (stereo not shown) [Orbitone, 2-acetyl-2,3,8,8-tetramethyloctarine] | reduced the discomfort due to each malodor | 3.9 |
| CC(c1ccccc1)C1CC1C(C)(C)O (stereo not shown) [Pamplefix, 50% triethyl citrate solution, dimethyl-2-(1-phenylethyl)cyclopropylmethanol] | reduced the discomfort due to each malodor | 4.1 |
| C=C(C)[C@@H]1CC[C@@H](C)C[C@H]1O [Isopulegol, isopulegol] | reduced the discomfort due to each malodor | 3.4 |
| CC(=CCC1CC=C(C)C1(C)C)CO (stereo not shown) [Hindinol, 2-methyl-4-(2,2,3-trimethyl-3-cyclopentenyl)-2-buten-1-ol] | reduced the discomfort due to each malodor | 3.9 |
| CC(=O)C(C)=CC1C(C)=CCCC1(C)C (stereo not drawn) [α-isomethylionone, 3-methyl-4-(2,6,6-trimethyl-2-cyclohexen-1-yl)-3-buten-2-one] | reduced the discomfort due to each malodor | 3.1 |
| CCOC(=O)C(C)C(C)S (stereo not shown) [ethyl 3-mercapto-2-methylbutyrate] | reduced the discomfort due to each malodor | 3.1 |
| CC1CCC(C(C)C)C(OCC(O)CO)C1 (stereo not shown) [COOLACT 10, 3-(menthoxy)propane-1,2-diol] |  | 3.3 |
| CCCC(O)CCC1C(C)CCCC1(C)C (stereo not shown) [Dextramber, 1-(2,2,6-trimethylcyclohexyl)hexan-3-ol] | reduced the discomfort due to each malodor | 3.0 |
| O=C1CCCC=CCCCCCCCCCC1 [Ambretone, 5-cyclohexadecenone] | reduced the discomfort due to each malodor | 3.5 |
| CC1=CCC(C(C)C)C=C1 (stereo not shown) [Phellandrene, p-mentha-1,5-diene] | reduced the discomfort due to each malodor | 4.1 |
